The values below come from US20250326859A1, “ANTI-CANCER ANTIBODIES, COMBINATION THERAPIES, AND USES THEREOF” (PRECISION BIOLOGICS, INC., priority 2022, published 2025).

For assay [1], the system named is pancreatic cancer samples. The experiment in a line: IHC on paraffin tissue sections, pancreatic cancer. In kind it is binding, human. The settings on record: biotinylated antibody. An excerpt: (§1) FIG. 2. Immunohistochemistry results from cancer tissue arrays. Immunohistochemistry method (IHC) was used for determining the presence of NEO-101/102, NEO-201 and NEO-301 antigens on paraffin microarrays and tissues. These primary antibodies (NEO-101/NEO-102, NEO-201 and NEO-301) were biotinylated prior to use. Paraffin tissue Microarrays and slides of tissues were reacted with the primary Ab after inactivating endogenous peroxidase and blocking the slides. Staining was detected with streptavidin-horseradish peroxidase conjugate and visualized with chromogen. Biotinylated human IgG1 was used as negative control and mouse anti-human cytokeratin monoclonal antibody was used as positive control. Antibody staining is measured as % and intensity of tumor epithelial cells and luminal secretion within the whole tissue section.
(§2) Immunohistochemistry (IHC) was used for determining the presence of NEO-101/102, NEO-201 and NEO-301 antigens on paraffin microarrays and tissues. These primary antibodies (NEO-101/NEO-102, NEO-201 and NEO-301) were biotinylated prior to use. Paraffin tissue microarrays and slides of tissues were reacted with the primary antibody after inactivating endogenous peroxidase and blocking the slides. Staining was detected with streptavidin-horseradish peroxidase conjugate and visualized with chromogen. Biotinylated human IgG1 was used as negative control and mouse anti-human cytokeratin monoclonal antibody was used as positive control. Antibody staining was measured as % and intensity of tumor epithelial cells and luminal secretion within the whole tissue section.
(§3) The cancer cells and normal cells tested were of the following tissue origins: Colon, Pancreas, Lung, Larynx, Prostate, Esophagus, Uterus, Stomach, Skin, Breast, and Ovary.

Assay [2] has as its system pancreatic adenocarcinoma cells. Nature of the assay: Flow cytometry antigen expression, pancreatic adenocarcinoma cell lines. It is filed as binding, human. The settings on record: primary antibody at 10 ug/mL. The protocol: (§4) FIG. 1. NEO-101, NEO-201 and NEO-301 Antigen Expression by Human Normal and Cancer Cell Lines. NEO-101, NEO-201 and NEO-301 specific antigen expression in various cell lines were detected by Flow Cytometry. Viable cell suspensions were incubated with primary antibody NEO-101, NEO-201 and NEO-301 separately at 10 ug/mL. Human IgG (10 ug/mL) was used as negative control. Goat anti-human IgG (Fc)-phycoerythrin conjugate was used for primary antibody detection; 7-ADD was used for excluding dead cells from analysis. The staining was measured by Flow Cytometry (Guava instrument, Millipore). Median fluorescent intensity (MFI) and % of stained cells was used for determining presence of specific antigen on each cell line.
(§5) Antigen expression in cell lines of various origins were detected by Flow Cytometry. Viable cell suspensions were incubated with primary antibody NEO-101, NEO-201 and NEO-301 separately at 10 ug/mL. Human IgG (10 ug/mL) was used as negative control. Goat anti-human IgG (Fc)-phycoerythrin conjugate was used for primary antibody detection; 7-ADD was used for excluding dead cells from analysis. The staining was measured by Flow Cytometry (Guava instrument, Millipore). Median fluorescent intensity (MFI) and % of stained cells was used for determining presence of specific antigen on each cell line.
(§6) The cell lines tested included breast cancer cells, cervical squamous carcinoma cells, colorectal adenocarcinoma cells, lung adenocarcinoma cells, lung carcinoma cells, lung squamous carcinoma cells, myelogenous leukemia cells, ovarian cancer cells, pancreatic adenocarcinoma cells, pancreatic carcinoma cells, prostate adenocarcinoma cells, and prostate cancer cells. Additionally, normal lung cells were tested.
Background: A flow cytometer gives signals particle by particle.

The test system of assay [3] is colorectal adenocarcinoma cells. Nature of the assay: Flow cytometry antigen expression, colorectal adenocarcinoma cell lines. The conditions noted are these: primary antibody at 10 ug/mL; multiple colorectal adenocarcinoma cell lines. It is filed as binding, human. The protocol:
as §4, §5, §6

The test system of assay [4] is Human tumor xenografts. Nature of the assay: In vivo localization of radiolabeled antibodies in tumor-bearing mice. Set-up: species or system SCID or nude mice. The settings on record: 111In or 86Y label, intravenous, paper example in present tense. An excerpt:
Antibodies NEO-101, NEO-201, and NEO-301 are radiolabeled by conjugation to either ^111In or ^86Y using the acyclic chelate CHX-A″-DTPA. The conjugation molar ratios are empirically determined. Human tumor xenografts are introduced into SCID or nude mice, including the cell lines identified in FIG. 1 as being reactive with NEO-101, NEO-201, or NEO-301 in cell culture and optionally further cancer cell lines detected to bind those antibodies. Control xenografts non-reactive with these antibodies are also utilized. Following intravenous administration of radiolabeled antibodies in tumor-bearing mice, cell samples are harvested and analyzed. Labeled antibody biodistribution is determined with respect to the tumor and other tissues including liver and kidneys.
Additionally, xenograft bearing mice are subjected to imaging studies including planar gamma-imaging performed at multiple time points to assess the stability of labeled antibody binding to the tumor cells and measure the level of accumulation of radiolabeled antibody in other tissues.

Assay [5] relates to esophagus cancer samples. Nature of the assay: IHC on cancer tissue microarray, esophagus cancer. In kind it is binding, human. The conditions noted are these: biotinylated antibody.
Excerpt: as §1
(§7) Immunohistochemistry (IHC) was used for determining the presence of NEO-101/102, NEO-201 and NEO-301 antigens on paraffin microarrays and tissues. These primary antibodies (NEO-101/NEO-102, NEO-201 and NEO-301) were biotinylated prior to use. […] Staining was detected with streptavidin-horseradish peroxidase conjugate and visualized with chromogen. […] Antibody staining was measured as % and intensity of tumor epithelial cells and luminal secretion within the whole tissue section. […]

The subject of assay [6] is breast cancer samples. The experiment in a line: IHC on cancer tissue microarray, breast cancer. The settings on record: biotinylated antibody. It is filed as binding, human.
Excerpt: as §1, §7

The subject of assay [7] is lung cancer samples. The experiment in a line: IHC on cancer tissue microarray, lung cancer. In kind it is binding, human. The conditions noted are these: biotinylated antibody.
Excerpt: as §1, §7

For assay [8], the system named is pancreatic cancer samples. The experiment in a line: IHC on cancer tissue microarray, pancreatic cancer. It is filed as binding, human. The conditions noted are these: biotinylated antibody.
Excerpt: as §1, §2, §3

Assay [9] has as its system colon cancer samples. Nature of the assay: IHC on paraffin tissue sections, colon cancer. It is filed as binding, human. The conditions noted are these: biotinylated antibody.
Excerpt: as §1, §2, §3

Assay [10] relates to colon cancer samples. Nature of the assay: IHC on cancer tissue microarray, colon cancer. In kind it is binding, human. The conditions noted are these: biotinylated antibody.
Excerpt: as §1, §2, §3

Assay [11] has as its system lung squamous carcinoma cells. The experiment in a line: Flow cytometry antigen expression, lung squamous cell carcinoma cell lines. It is filed as binding, human. The conditions noted are these: primary antibody at 10 ug/mL; multiple lung squamous cell carcinoma cell lines. The protocol: as §4
as §5, with “line. […]” for “line.”

Assay [12] deals with lung adenocarcinoma cells. The experiment in a line: Flow cytometry antigen expression, lung adenocarcinoma cell lines. It is filed as binding, human. The settings on record: primary antibody at 10 ug/mL; multiple lung adenocarcinoma cell lines. The protocol:
as §4
as §5, with “line. […]” for “line.”

Assay [13] deals with skin cancer samples. Nature of the assay: IHC on cancer tissue microarray, skin cancer. It is filed as binding, human. The conditions noted are these: biotinylated antibody.
Excerpt: as §1, §7

Assay [14] has as its system lung cancer samples. Nature of the assay: IHC on paraffin tissue sections, lung cancer. It is filed as binding, human. The settings on record: biotinylated antibody, relatively fewer samples tested.
Excerpt: as §1, §7

Assay [15] deals with uterus cancer samples. Nature of the assay: IHC on cancer tissue microarray, uterus cancer. It is filed as binding, human. The conditions noted are these: biotinylated antibody.
Excerpt: as §1, §7

Assay [16] deals with stomach cancer samples. Nature of the assay: IHC on cancer tissue microarray, stomach cancer. It is filed as binding, human. The conditions noted are these: biotinylated antibody.
Excerpt: as §1, §7

Regarding “NEO-301: Chimeric 31.1 antibody, 2 amino acid changes in HC constant domain, produced in high titer CHO-S cells; binds A33 antigen”, the “cancer samples positive for the antigen” value in [1] amounted to 47%; in assay [5], 43%; in assay [6], 78%; in assay [7], 56%; in assay [8], 57%; in [9], 52%. Besides, in assay [10], the “cancer samples positive for the antigen” value came out at 87%. For the same molecule, the “antigen expression detected by flow cytometry” value (shortened to “antigen expression detected”) in assay [2] and in assay [3] was “detected” each time. The “binding of radiolabeled antibody to its antigen in vivo” value (“binding of radiolabeled antibody” for short) in assay [4] is given as “able to bind their respective antigens”.

Take “NEO-201: Humanized 16C3 antibody; binds epitopes in CEACAM5 and CEACAM6”: the “cancer samples positive for the antigen” value in [1] turned out to be 83%; in [7], 61%; in assay [8] it was 86%; in assay [9] it was 94%; in assay [13], 16%; in [14], 90%. Moreover, the “cancer samples positive for the antigen” value is reported as 51% in assay [15] and 85% in assay [10]. For the same molecule, the “antigen expression detected” value in [2], in assay [11], in [3] and in assay [12] was “detected” throughout. The “binding of radiolabeled antibody” value in assay [4] is on record as “able to bind their respective antigens”.

B1: NEO-101: Chimeric NPC-1 antibody, engineered in CHO-DG44 production cell clone 4B7; targets a variant of MUC5AC (protein)
light: QVVLTQSPVIMSASPGEKVTMTCSASSSISYMYWYQQKPGTSPKRWIYDTSKLASGVPARFSGSGSGTSYSLTISNMEAGDAATYYCHQRDSYPWTFGGGTNLEIK
heavy: QVQLKESGPDLVAPSQSLSITCTVSGFSLSKFGVNWVRQPPGKGLEWLGVIWGDGSTSYNSGLISRLSISKENSKSQVFLKLNSLQADDTATYYCVKPGGDYWGHGTSVTVSS
B1: the “cancer samples positive for the antigen” value was 82% in assay [1]; 31% in [8]; 87% in assay [9]; 67% in assay [14]; 41% in [15]; 30% in assay [16]. Moreover, in assay [10], the “cancer samples positive for the antigen” value came to 61%. In addition, the “antigen expression detected” value in assay [2] and in [3] was “detected” in each case. For the same molecule, the “binding of radiolabeled antibody” value in assay [4] is on record as “able to bind their respective antigens”.
